Data reported in patent US7024311B1, “COMPUTER-AIDED METHOD FOR THE PROVISION, IDENTIFICATION AND DESCRIPTION OF MOLECULES CAPABLE OF EXHIBITING A DESIRED BEHAVIOR, MORE PARTICULARLY IN THE PHARMACEUTICAL SECTOR, AND MOLECULES OBTAINED BY SAID METHOD” (Synt:EM S.A., priority 1997, dated 2006).
Several values for one entry are separate records, joined by “and”; a condition that tells them apart may be missing. Equal values may be shown once. Marks after values point to notes of the source that are not given here.

Assays:
[1] = system: CBA mouse recipients of C57B1/6 donor hearts; test: heart-allograft survival in mice (abdominal heterotopic heart transplantation); format: in vivo; details: for MSTSD / mean graft survival time: CBA recipients of C57B1/6 donor hearts, peptide intraperitoneal daily from day of transplantation until day nine
Description: Abdominal heterotopic heart transplantation was carried out as described previously in J. Thorac. Cardiovasc. Surg., vol. 7, page 225 (1969).
CBA mouse recipients of C57B1/6 donor hearts were treated daily with different doses of peptide following organ transplantation. Peptides were dissolved in DMSO and diluted in PBS (final DMSO concentration 10%) before intraperitoneal administration. Animals were treated from the day of transplantation until day nine. Graft survival was monitored daily by direct palpation, and rejection was defined as termination of palpable cardiac contractility. The statistical significance of prolongation of heart allograft survival was calculated using the Mann-Whitney test.

[2] = system: CBA mouse recipients of C57B1/6 donor hearts; details: cited from earlier work

Substance	MSTSD ([1]; dose not printed in table)	also measured
RENLRIALRY [peptide derived from HLA-B2702, amino acids 75 to 84, reference compound]	11.4 2.6 (1)* and 11.4 4.1 (1)	allograft survival, reference peptide ([1]; 80 mg/kg/day): prolonged allograft survival; effect at lower doses, reference peptide ([1]; doses lower than 80 mg/kg/day): no effect was observed; long-term graft survival ([1]; reference peptide administration): no long-term graft survival was induced; heart-allograft survival ([2]; 80 mg/kg/day for 10 days following transplantation of B6 donor hearts into CBA recipients, n=8, p<0.01 vs untreated): 11.4 days; heart-allograft survival in mice ([2]; Transplantation, vol. 59, page 455 (1995)): prolongs heart-allograft survival in mice; effect on graft survival at lower doses ([2]; doses lower than 80 mg/kg/day): No effect on graft survival was observed
YRLAIRLNVR	–	mean graft survival time ([1]; dose not printed in table): 12.5 days; mean graft survival time ([1]; dose not printed in table, listed as yrlairlnvr): 12.2 days
RVNLRTLRRY	8.0 0.5 (14)	–
RVDLRTLLRY	7.0 0.5 (7)	–
RVDKRTLLGY	7.8 1.0 (8)	–
RVNLRIALRY [peptide derived from peptide 2702.75-84]	11.5 0.5 (3)	mean graft survival time ([1]; dose not given): 13.1 days
RVSLRNLLGY	8.0 0.5 (9)	–
REDLRTLLRY	7.7 1.2 (11)	–
renlpialry	9.5 2.4 (13)	–
RMNLQTLRGY	7.5 0.7 (15)	–
NLRIALRYYW [peptide derived from peptide 2702.75-84]	–	mean graft survival time ([1]; dose not printed in table): 11.6 days
RESLRLLRGY	7.5 0.7 (10)	–
ENLRIALR [shortened peptide derived from 2702.75-84]	8.5 0.7 (12)	–
YRLAIRLNER	12.1 2.8 (2)	MSTSD ([1]; dose not printed in table, listed as yrlairlner): 13.2 2.7 (2)
RVNLRTALRY	–	mean graft survival time ([1]; dose not printed in table): 8.5 days
